Measured values taken from patent US8349851B2, “JAK kinase modulating compounds and methods of use thereof” (Ambit Biosciences Corp., priority 2009, dated 2013).
Where two headings read alike, the source gives them in different places.

Tests used:
JAK2 = biological target: T1, JAK2 (Homo sapiens, UniProt O60674); assay: Competition binding assay, JAK2; details: read-out: Binding Assay: JAK2 (active_KD)
T1 construct: made in house
How it was run: (§1)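 JAK2 and JAK3 were each tested individually as T7 phage fusions or HEK-293-expressed DNA-tagged kinases, competing with compound for bead-immobilized biotinylated ligand. Eluted kinase was measured by quantitative PCR. Kd values came from eleven serial threefold dilutions.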

[1] = tested on: csTF-1 cells (GM-CSFR/JAK2/STAT5 pathway); assay: csTF-1 cell-based reporter assay; set-up: species or system human; details: GM-CSF at 2 ng/mL, 4 hours, read-out: Cell Assay: CS0017: CS TF-1 reporter assay: IC50
How it was run: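 GM-CSF-dependent human csTF-1 cells with STAT5-driven beta-lactamase reporter (irf1 element), 2×10^5 cells/well, given serial compound dilutions plus 2 ng/mL GM-CSF in 0.5% DMSO for 4 hours at 30° C. Substrate added 2 h at room temperature; blue (460 nm)/green (530 nm) fluorescence read at 409 nm excitation.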

AuroraB = biological target: T2, AuroraB (Homo sapiens, UniProt Q96GD4); assay: Competition binding assay, Aurora B
T2 construct: made in house
T2 sequence (Q96GD4 whole entry): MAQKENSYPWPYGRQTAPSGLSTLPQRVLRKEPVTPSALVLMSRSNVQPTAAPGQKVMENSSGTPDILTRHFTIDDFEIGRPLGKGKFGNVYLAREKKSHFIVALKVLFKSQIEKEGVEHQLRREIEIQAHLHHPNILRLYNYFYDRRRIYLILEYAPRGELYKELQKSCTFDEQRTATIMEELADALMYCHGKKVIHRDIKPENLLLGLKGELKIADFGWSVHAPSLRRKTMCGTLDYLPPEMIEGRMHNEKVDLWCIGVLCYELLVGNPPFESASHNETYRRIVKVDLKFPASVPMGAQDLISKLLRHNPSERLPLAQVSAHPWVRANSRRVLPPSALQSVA
Text: Methods for determining binding constant against Aurora B kinase are known to one of skill in the art. Exemplary methods are described in U.S. provisional application No. 61/294,413, and Fabian et al., Nature Biotechnology 2005, 23,329-336.
Competition binding assays used herein were developed, validated and performed as described in Fabian et al., Nature Biotechnology 2005, 23,329-336. Kinases were produced as fusions to T7 phage (See, Fabian et al. or WO04/015142) or alternatively, the kinases were expressed in HEK-293 cells and subsequently tagged with DNA for PCR detection (See, WO08/005310). For the binding assays, streptavidin-coated magnetic beads were treated with biotinylated affinity ligands for 30 min at rt to generate affinity resins. The liganded beads were blocked with excess biotin and washed with blocking buffer (SeaBlock (Pierce), 1% BSA, 0.05% Tween 20, 1 mM DTT) to remove unbound ligand and to reduce non-specific binding. […] Test compounds were prepared as 100× stocks in DMSO and rapidly diluted into the aqueous environment. DMSO was added to control assays lacking a test compound. Primary screen interactions were performed in polypropylene 384-well plates in a final volume of 34 μL, while Kd determinations were performed in polystyrene 96-well plates in a final volume of 135 μL. […] The kinase concentration in the eluates was measured by quantitative PCR. Each kinase was tested individually against each compound. Kds were determined using eleven serial threefold dilutions. A selectivity score, which is a quantitative measure of selectivity of a compound against a panel of enzymes, may be calculated for a compound by dividing the number of enzymes for which a compound meets a set criteria, (for example, a binding constant of 100 nM or less), by the total number of enzymes tested.

JAK3 = biological target: T3, JAK3 (Homo sapiens, UniProt P52333); assay: Competition binding assay, JAK3; details: read-out: Binding Assay: JAK3 (active_KD, ENZ)
T3 construct: made in house
T3 sequence (P52333 822-1111 limits assumed): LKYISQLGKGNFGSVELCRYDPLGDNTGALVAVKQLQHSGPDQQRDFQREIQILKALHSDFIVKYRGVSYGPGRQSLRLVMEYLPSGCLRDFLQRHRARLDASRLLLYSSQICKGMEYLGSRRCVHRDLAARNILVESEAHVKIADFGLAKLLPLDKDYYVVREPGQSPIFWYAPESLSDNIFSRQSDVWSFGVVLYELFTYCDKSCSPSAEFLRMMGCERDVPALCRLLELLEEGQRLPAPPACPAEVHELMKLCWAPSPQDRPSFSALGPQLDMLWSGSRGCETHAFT
How it was run: as §1

TEL-JAK cells = assay: In vivo efficacy study in the mouse TELJAK model (survival); details: CB17 SCID mice, BID for two weeks; Ambit Internal Compound 50 mg/kg BID, TGEN101348 100 mg/kg BID
Description: In Vivo Efficacy Study in the Mouse TELJAK Mouse Model
This study was conducted to determine the effect of a selected compound of Formula I on tumor progression and survival. CB17 SCID mice (Harlan Laboratories) were inoculated with 5e5 TEL-JAK cells via tail vein on day 0. Cells were allowed to establish in the animal, and on day 3, dosing was initiated as follows: Vehicle (Pharmatek #6) administered 50 uL at BID to a first group, Ambit Internal Compound prepared in Pharmatek #6 and administered at 50 mg/kg BID to a second group and TGEN101348 prepared in Pharmatek #6 to a third group at 100 mg/kg BID. Each treatment group (16 animals per group) received a twice daily dosing for a two week period. An untreated group of 10 animals also served as control.
A second study was conducted using the same protocol, with the same controls and the following treatment groups: Ambit Internal Compound A prepared in Pharmatek #6 administered at 60 mg/kg BID and a selected compound of Formula I prepared in Pharmatek #6 at 60 mg/kg BID.

HEL 92.1.7 cells = assay: In vivo efficacy study in the mouse HELV617F liquid tumor model (survival); details: CB17 SCID mice, PO BID, 21 day dosing; Ambit Internal Compound 50 or 60 mg/kg, compound of Formula I 60 mg/kg, TGEN101348 120 mg/kg
Description: In Vivo Efficacy Study in the Mouse HELV617F Liquid Tumor Mouse Model
This study was conducted to determine the effect of a selected compound of Formula I on tumor progression and survival. CB 17 SCID mice (Charles River Labs) were pretreated with cyclophosphamide IP QD at 150 mg/kg for two consecutive days before being injected with cells. On Day 0, 75 mice were inoculated IV with 5e6 HEL 92.1.7 cells suspended in sterile saline. Animals were weighed on Day 8, and assigned to groups with similar mean body weights and similar standard deviations from the mean. Animals were dosed on Day 8 for a 21 day dosing period. Treatment groups were as follows (10 animals per group): First group was administered vehicle (Pharmatek #6), PO, BID; a second group was administered Ambit Internal Compound A prepared in Pharmatek #6, at 50 mg/kg PO, BID; and a third group was administered TGEN101348 prepared in Pharmatek #6, at 120 mg/kg PO, BID. An untreated group of 10 animals also served as control.
Another study was conducted using the same protocol, with the same controls and the following treatment groups: Ambit Internal Compound A prepared in Pharmatek #6 administered at 60 mg/kg BID and a selected compound of Formula I prepared in Pharmatek #6 at 60 mg/kg BID.

T1 sequence (O60674 849-1124 limits assumed): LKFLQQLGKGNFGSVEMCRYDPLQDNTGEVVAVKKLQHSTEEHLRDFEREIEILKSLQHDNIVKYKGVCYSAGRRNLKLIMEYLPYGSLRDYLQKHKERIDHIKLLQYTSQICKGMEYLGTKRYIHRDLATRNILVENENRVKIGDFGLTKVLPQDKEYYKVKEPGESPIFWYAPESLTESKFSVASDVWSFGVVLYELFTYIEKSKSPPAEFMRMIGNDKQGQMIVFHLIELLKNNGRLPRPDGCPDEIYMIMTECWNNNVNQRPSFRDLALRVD

Molecule	Kd (JAK2) [nM]	IC50 ([1]; Homo sapiens) [nM]	Kd (AuroraB) [nM]	Kd (JAK3) [nM]	increased life span (ILS) (TEL-JAK cells) [%]	increased life span (ILS) (HEL 92.1.7 cells)	IC50 [1] [nM]
Cc1cc(Nc2nc(C(=O)c3ccc(F)cc3)nc3cc(O)ccc23)n[nH]1 [Example 37, (4-fluorophenyl)(7-hydroxy-4-(5-methyl-1H-pyrazol-3-ylamino)quinazolin-2-yl)methanone]	≤ 1	≤ 100	> 200	10 to 100			
Cc1cc(Nc2nc(C(O)c3ccc(F)cc3)nc3cc(OC4CCNCC4)ccc23)n[nH]1 (centres unmarked) [Example 41, (4-fluorophenyl)(4-(5-methyl-1H-pyrazol-3-ylamino)-7-(piperidin-4-yloxy)quinazolin-2-yl)methanol]	≤ 1	100 to 500	> 200	≤ 10			
Cc1cc(Nc2nc(C(F)(F)c3ccc(F)cc3)nc3cc(CS(C)(=O)=O)ccc23)n[nH]1 [Example 50, 2-(difluoro(4-fluorophenyl)methyl)-N-(5-methyl-1H-pyrazol-3-yl)-7-(methylsulfonylmethyl)quinazolin-4-amine]	≤ 1	≤ 100	> 200	≤ 10			
CCOCc1ccc2c(Nc3cc(C)[nH]n3)nc(C(F)(F)c3ccc(F)cc3)nc2c1 [Example 51, 2-(Difluoro(4-fluorophenyl)methyl)-7-(ethoxymethyl)-N-(5-methyl-1H-pyrazol-3-yl)quinazolin-4-amine]	≤ 1	≤ 100	50 to 200	≤ 10			
Cc1cnc(Nc2ccc(OCCN3CCCC3)cc2)nc1Nc1cccc(S(=O)(=O)NC(C)(C)C)c1 [TGEN101348]					30	approximately 5%	
Cc1cc(Nc2nc(C(O)(c3ccc(F)cc3)c3ccc(F)cc3)nc3ccccc23)n[nH]1 [bis-(4-fluoro-phenyl)-[4-(5-methyl-1H-pyrazol-3-ylamino)-quinazolin-2-yl]-methanol]	> 10	> 500	> 200	> 100			
(4-(1H-pyrazol-3-ylamino)quinazolin-2-yl)bis(4-fluorophenyl)methanol [Example 48]	> 10		> 200	> 100			> 500
